# Measurements as given in patent publication US20260097101A1, “Compositions for Use in the Treatment of Diabetes or Obesity” (Dia Beta Labs Ltd, priority 2022, published 2026).
# Like-named read-outs stand apart in the source and are kept apart here. No end group written: not given here.
# Columns and labels:
# purified porcine DPP-4 = biological target: T1, purified porcine DPP-4 (Sus scrofa, UniProt P22411); assay: In vitro DPP-4 stability (RP-HPLC and MALDI-ToF degradation profiles); assay type: in vitro ADME; details: for DPP-4 stability: pH 7.4
# T1 construct: purchased Sigma-Aldrich
# T1 sequence (P22411 whole entry): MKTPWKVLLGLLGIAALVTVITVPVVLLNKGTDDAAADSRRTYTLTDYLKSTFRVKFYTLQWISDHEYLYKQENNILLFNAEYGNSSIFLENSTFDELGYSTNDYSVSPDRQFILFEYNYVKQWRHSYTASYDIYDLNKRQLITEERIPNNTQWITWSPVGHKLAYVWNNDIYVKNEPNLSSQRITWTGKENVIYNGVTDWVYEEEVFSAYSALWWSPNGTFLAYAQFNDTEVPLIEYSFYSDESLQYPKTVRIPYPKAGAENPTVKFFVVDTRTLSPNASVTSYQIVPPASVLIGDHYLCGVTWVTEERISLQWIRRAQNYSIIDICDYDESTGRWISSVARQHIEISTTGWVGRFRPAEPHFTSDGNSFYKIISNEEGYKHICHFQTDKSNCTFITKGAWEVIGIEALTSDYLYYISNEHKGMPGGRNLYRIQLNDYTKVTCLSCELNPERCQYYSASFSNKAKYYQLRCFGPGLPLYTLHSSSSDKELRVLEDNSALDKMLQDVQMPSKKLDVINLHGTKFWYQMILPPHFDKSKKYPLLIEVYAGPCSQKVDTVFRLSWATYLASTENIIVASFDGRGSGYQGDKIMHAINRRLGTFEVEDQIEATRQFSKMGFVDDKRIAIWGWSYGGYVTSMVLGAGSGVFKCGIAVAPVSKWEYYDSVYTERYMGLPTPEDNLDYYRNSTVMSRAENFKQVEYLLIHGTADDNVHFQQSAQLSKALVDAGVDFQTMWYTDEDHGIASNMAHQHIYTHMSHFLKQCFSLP
# Protocol: To establish in vitro stability of PP and [P^3]PP, peptides (10 μg) were incubated with purified porcine DPP-4 (5 mU in 50 mmol/l triethanolamine/HCl, pH 7.4; Sigma-Aldrich) for 0-8 hours and degradation profiles examined using RP-HPLC and MALDI-ToF, employing the same systems as outlined above. Sequence of native PP and [P3]PP using one letter amino acid notation. The amino acid substitution in [P3]PP is denoted by bold underlined text. In vitro DPP-4 stability was assessed following incubation of test peptides with purified DPP-4 (5 mU) for 0-8 h.
# BRIN-BD11 cells = assay: Beta-cell proliferation (Ki-67 staining), with and without Y4 antagonist (S)-VU0637120; assay type: cell-based, rodent; details: 10^-8 and 10^-6 M, 18 h
# Protocol: FIG. 1 illustrates the effects PP peptides on cell viability, insulin release, proliferation and apoptosis from rodent BRIN-BD11 cells. (A) Cells were incubated with test peptides (10^−8-10^−6 M) for 18 h prior to addition of MTT. (B, C) Cells were incubated (20 min) with (B) 16.7 mM glucose or (C) 16.7 mM glucose supplemented with alanine (10 mM), alone and together with test peptides (10^−12-10^−6 M) and insulin secretion assessed by RIA. (D, E) To assess effects on BRIN BD11 beta-cell proliferation and apoptosis and receptor selectivity, cells were incubated with test peptides (10^−8-10^−6 M) alone, or together with cytokine mix (IL-1β 100 Uml, IFN-γ 20 U/ml, TNF-α 200 U/ml), in the absence and presence of the Y4 antagonist, (S)-VU0637120, (10^−5 M), as specified, for 18 h prior to staining for (D) Ki-67 or (E) TUNEL. Values are mean±SEM (n=8). *p<0.05, **p<0.01 and ***p<0.001 compared with appropriate control culture, namely (A, D, E) media alone or (B, C) 16.7 mM glucose. ^Δp<0.05, ^ΔΔp<0.01, ^ΔΔΔp<0.001 compared to (C) 10 mM alanine or (E) cytokine mix. ^φp<0.05, ^φφp<0.01, ^φφφp<0.001 compared to effects in the absence of the NPYR4 antagonist (S)-VU0637120. […] Proliferation/TUNEL positive frequency was determined using the cell-counter function on ImageJ Software and expressed as % of total cells analysed, as described previously from our laboratory. […]
molecule,measurement,setting,value
CC[C@H](C)[C@H](NC(=O)[C@H](Cc1ccc(O)cc1)NC(=O)[C@H](CCCNC(=N)N)NC(=O)[C@H](CCCNC(=N)N)NC(=O)[C@H](CC(C)C)NC(=O)[C@H](CC(=O)O)NC(=O)[C@H](C)NC(=O)[C@H](C)NC(=O)[C@H](Cc1ccc(O)cc1)NC(=O)[C@H](CCC(N)=O)NC(=O)[C@H](C)NC(=O)[C@H](CCSC)NC(=O)[C@H](CCC(N)=O)NC(=O)[C@H](CCC(=O)O)NC(=O)[C@@H]1CCCN1C(=O)[C@@H](NC(=O)[C@H](C)NC(=O)[C@H](CC(N)=O)NC(=O)[C@H](CC(=O)O)NC(=O)CNC(=O)[C@@H]1CCCN1C(=O)[C@H](Cc1ccc(O)cc1)NC(=O)[C@@H](NC(=O)[C@@H]1CCCN1C(=O)[C@H](CCC(=O)O)NC(=O)[C@H](CC(C)C)NC(=O)[C@@H]1CCCN1C(=O)[C@H](C)N)C(C)C)[C@@H](C)O)C(=O)N[C@@H](CC(N)=O)C(=O)N[C@@H](CCSC)C(=O)N[C@@H](CC(C)C)C(=O)N[C@H](C(=O)N[C@@H](CCCNC(=N)N)C(=O)N1CCC[C@H]1C(=O)N[C@@H](CCCNC(=N)N)C(=O)N[C@@H](Cc1ccc(O)cc1)C(N)=O)[C@@H](C)O [Native PP],DPP-4 mediated degradation,purified porcine DPP-4,"generation of the N-terminally cleaved product, PP(3-36)"
same,DPP-4 stability,purified porcine DPP-4,<2 h
APPEPVYPGDNAKPEQMAQYAADLRRYINMKTRPRY-NH2 (C-terminus assumed) [[P^3]PP],DPP-4 mediated degradation,"purified porcine DPP-4; incubation with DPP-4, 0-8 h",completely resistant
same,DPP-4 stability,"purified porcine DPP-4; purified DPP-4 (5 mU), incubation 0-8 h",>8 h
GLP-1: GLP-1 (10^-8 and 10^-6 M) employed as control in proliferation studies,BRIN-BD11 cell proliferation (Ki-67),BRIN-BD11 cells,augmented
